Assay results published in patent US12466807B2, “Salt and crystal form of a FAK inhibitor” (Amplia Therapeutics Limited, priority 2019, dated 2025).
“Also recorded” adds a separate entry of the source. Marks after values point to notes of the source that are not given here.

How the values were obtained:
[1] = Dynamic/gravimetric vapour sorption (DVS/GVS) hygroscopicity; assay type: physicochemical; settings: for Hygroscopicity, mass uptake (DVS/GVS): at 90% R.H., 25° C.
Description: Approximately 10-20 mg of sample was placed into a mesh vapour sorption balance pan and loaded into the DVS-1 dynamic vapour sorption balance by Surface Measurement Systems. The sample was subjected to a ramping profile from 40-90% relative humidity (RH) at 10% increments, maintaining the sample at each step until a stable weight had been achieved (dm/dt 0.004%, minimum step length 30 minutes, maximum step length 500 minutes) at 25° C. After completion of the sorption cycle, the sample was dried using the same procedure to 0% RH and then a second sorption cycle back to 40% RH. Two cycles were performed. The weight change during the sorption/desorption cycles were plotted, allowing for the hygroscopic nature of the sample to be determined. XRPD analysis was then carried out on any solid retained.
Approximately 10-20 mg of sample was placed into a mesh vapour sorption balance pan and loaded into an IGASorp Moisture Sorption Analyser balance by Hiden Analytical. The sample was subjected to a ramping profile from 40-90% relative humidity (RH) at 10% increments, maintaining the sample at each step until a stable weight had been achieved (98% step completion, minimum step length 30 minutes, maximum step length 60 minutes) at 25° C. After completion of the sorption cycle, the sample was dried using the same procedure to 0% RH, and finally taken back to the starting point of 40% RH. Two cycles were performed. The weight change during the sorption/desorption cycles were plotted, allowing for the hygroscopic nature of the sample to be determined.

[2] = Thermodynamic solubility studies; assay type: physicochemical; settings: for HPLC Conc: ca. 22° C.
Description: Thermodynamic Solubility Studies were carried out as follows: • Approximately 10 mg of Formula I free base Pattern 1 and L-tartrate Pattern 1, were weighed into a 1.5 mL screw-cap vial. The appropriate buffer system was added to create a slurry and the vials were shaken at ambient temperature (ca. 22° C.) for approximately 24 hours. • After this time, the slurries were transferred to centrifuge tubes containing nylon filters (0.22 μm) and filtered using a centrifuge for ca. 10 minutes. The isolated solids were then analyzed by XRPD and the filtrates measured by a pH meter and analyzed by HPLC for concentration.

7-day stability study = assay type: physicochemical; settings: for XRPD / HPLC Purity: 1 week; for HPLC Purity: input purity 99.8%
Description: 7-day stability tests were carried out as follows: • Approximately 10-20 mg of Formula I L-tartrate Pattern 1 was placed at either 40° C./75% RH, 80° C. or under ambient light and temperature for 1 week. The resulting solids were analyzed by XRPD to assess the physical stability and HPLC to assess the chemical stability.

Hydration studies = assay type: physicochemical; settings: 24 h
Description: Hydration studies were carried out as follows: • Approximately 10-20 mg of Formula I free base, L-tartrate Pattern 1, were weighed into 1.5 mL vials. • Water/acetone mixtures were prepared to give water activities of 0.281, 0.637 and 0.888. • The appropriate water/acetone mixture was then added to each vial to form a slurry and the vials capped and shaken at ambient temperature for 24 hours. • After this time, the slurries were transferred to centrifuge tubes containing nylon filters (0.22 μm) and centrifuged for 15 minutes. The isolated solids were analyzed by XRPD.

[3] = Oral exposure (pharmacokinetics) in rats; assay type: in vivo, male Sprague Dawley rats; settings: rat
Description: To compare the exposure of the compound of Formula I in male Sprague Dawley rats following oral administration of the free base and L-tartrate salt at a target dose of 20 mg/kg (as free base equivalent).
Further details of the in-life, formulation and bioanalytical procedures together with the data analysis, are described in Appendix 1.
In-Life • The exposure of Formula I was studied in overnight-fasted male Sprague Dawley rats that had access to water ad libitum throughout the pre- and post-dose sampling period, and access to food was re-instated 4 h post-dose. In-life details are provided in Table A1-1. • Samples of arterial blood and total urine were collected up to 48 h post-dose. Arterial blood was collected directly into borosilicate vials (at 4° C.) containing heparin, Complete® (a protease inhibitor cocktail) and potassium fluoride to minimise potential for ex vivo degradation of Formula I in blood/plasma samples. Once collected, blood samples were centrifuged, supernatant plasma was removed and stored frozen (−80° C.) until analysis by LC-MS.
The extraction of the test compound from plasma samples was conducted using protein precipitation with acetonitrile. Both solution and plasma standards were freshly prepared, with each set of standards comprising at least seven different analyte concentrations. Solution standards were diluted from a stock solution (1 mg/mL in DMSO) with 50% acetonitrile in water. Plasma standards were prepared by spiking blank plasma (50 μL) with solution standards (10 μL) and the internal standard, diazepam (10 μL, 5 μg/mL).
Plasma samples were similarly prepared, except that blank acetonitrile (10 μL) was added instead of solution standards. Protein precipitation was carried out by the addition of acetonitrile (120 μL), vortexing (20 s) and centrifugation (10,000 rpm) in a microcentrifuge for 3 minutes. The supernatant was subsequently separated and 3 μL injected directly onto the column for LC/MS analysis using conditions tabulated below. All plasma concentrations are expressed as the non-salt equivalent.
Standard Calculations • Plasma concentration versus time data were analysed using non-compartmental methods (PKSolver Version 2.0). Standard calculations for each pharmacokinetic parameter are listed below.
[formula] • AUCIV Area under the plasma concentration versus time profile from time zero to infinity after IV administration (reported previously: CDCO_FAK_11_031) • t1/2 Elimination half-life • λ2 Terminal elimination rate constant after IV administration • BA Oral bioavailability • AUCoral Area under the plasma concentration versus time profile from time zero to infinity after oral administration • Cmax Maximum plasma concentration observed after oral administration. • Tmax Time to achieve Cmax • Differences in pharmacokinetic parameters (t½, AUC, Cmax, Tmax and BA) between free base and L-tartrate salt were evaluated using an unpaired t-test testing for significance at α=0.05 (GraphPad Prism, version 7.01)

[4] = PO 20 mg/kg (free base equivalent), mean ± SD, n = 3, listed as L-Tartrate salt, 20 mg/kg

Hygroscopicity, mass uptake (DVS/GVS) [1]: Uptake of 0.6 wt %
Hygroscopicity, mass uptake (DVS/GVS) ([1]; listed as Formula I L-tartrate Pattern 1): 0.6 wt %
Hygroscopic nature by GVS analysis ([1]; up to 90% RH): slightly hygroscopic
Thermodynamic Solubility ([2]; Water): 900 µg/mL
Thermodynamic Solubility ([2]; pH 1.0): 300 µg/mL
HPLC Conc ([2]; pH 1.0, 24 h slurry): 0.3 mg/mL
XRPD Result ([2]; pH 1.0, solid after 24 h slurry, listed as L-Tartrate Pattern 1): Possible HCl salt
XRPD Result ([2]; pH 1.0, solid after 24 h slurry, listed as L-tartrate Pattern 1): possible HCl salt
pH Post-24 h Slurry ([2]; pH 1.0, listed as L-Tartrate Pattern 1): 1.87
Thermodynamic Solubility ([2]; pH 4.5): 300 µg/mL
HPLC Conc ([2]; pH 4.5, 24 h slurry, listed as L-Tartrate Pattern 1): 0.3 mg/mL
XRPD Result ([2]; pH 4.5, solid after 24 h slurry, listed as L-Tartrate Pattern 1): Pattern 2
pH Post-24 h Slurry ([2]; pH 4.5, listed as L-Tartrate Pattern 1): 3.99
Thermodynamic Solubility ([2]; pH 6.8): 200 µg/mL
HPLC Conc ([2]; pH 6.8, 24 h slurry): 0.2 mg/mL
HPLC Conc ([2]; pH 6.8, 24 h slurry, listed as L-Tartrate Pattern 1): 0.2 mg/mL
XRPD Result ([2]; pH 6.8, solid after 24 h slurry, listed as L-Tartrate Pattern 1): Pattern 2
pH Post-24 h Slurry ([2]; pH 6.8, listed as L-Tartrate Pattern 1): 4.43
HPLC Conc ([2]; water, 24 h slurry, listed as L-Tartrate Pattern 1): 0.9 mg/mL
XRPD Result ([2]; water, solid after 24 h slurry, listed as L-Tartrate Pattern 1): Pattern 2
pH Post-24 h Slurry ([2]; water, listed as L-Tartrate Pattern 1): 3.43
XRPD (7-day stability study; 40° C./75% RH): Pattern 1
HPLC Purity (7-day stability study; 40° C./75% RH): 99.6 % Area
XRPD (7-day stability study; 80° C.): Pattern 1
HPLC Purity (7-day stability study; 80° C.): 99.3 % Area
XRPD (7-day stability study; Ambient temperature and light): Pattern 1
HPLC Purity (7-day stability study; Ambient temperature and light): 99.5 % Area
Stability under accelerated conditions (7-day stability study; one week, ambient temperature and light, 40° C./75% RH and 80° C.): considered stable
XRPD Result (Hydration studies; Water Activity 0.281, water/acetone): Pattern 1
XRPD Result (Hydration studies; Water Activity 0.637, water/acetone): Pattern 1
XRPD Result (Hydration studies; Water activity 0.888, water/acetone, listed as L-Tartrate Pattern 1): Pattern 2 (hydrate)
XRPD Result (Hydration studies; Water activity 0.888, water/acetone, listed as L-tartrate Pattern 1): L-tartrate Pattern 2
Apparent t1/2 [3, 4]: 5.8 ± 0.2 h
BA [3, 4]: 71.3 ± 7.5 %
Plasma AUC0-inf [3, 4]: 14.6 ± 1.5* h*μM
Tmax [3, 4]: 5.7 ± 1 h
Cmax ([3]; PO 20 mg/kg (free base equivalent), mean ± SD, n = 3, listed as L-Tartrate salt, 20 mg/kg, read-out: Plasma Cmax): 1200 ± 300 nM
Cmax greater than the free base ([3]; PO 20 mg/kg): approximately 30%
Plasma AUC compared with the free base ([3]; PO 20 mg/kg): significantly higher
% Dose in urine (unchanged Formula I) ([3]; PO 20 mg/kg, pooled urine up to 48 h, listed as L-Tartrate salt, 20 mg/kg): 0.341 ± 0.042%
AUC greater than the free base ([3]; PO 20 mg/kg, P<0.05): ~50%
N-demethylation metabolite of Formula I ([3]; plasma and urine after PO 20 mg/kg, not quantified): detected in plasma and urine
SMILES: COc1cc(C2CCN(C)CC2)ccc1Nc1ncc(C(F)(F)F)c(CCc2ccccc2CC(N)=O)n1 [L-Tartrate]
Post-GVS XRPD ([1]; after GVS humidity cycles, listed as Formula I L-tartrate Pattern 1): no changes to the XRPD pattern; also recorded: no change in form
Adverse reactions or compound-related side effects ([3]; PO 20 mg/kg, 48 h sampling period): No adverse reactions or compound-related side effects were observed
